# Measured values taken from ChEMBL document CHEMBL1143363, “Discovery of trisubstituted cyclohexanes as potent CC chemokine receptor 2 (CCR2) antagonists” (Bioorg Med Chem Lett, 2009).
# pIC50: −log10 of the molar value.
# Legend:
# [1] = target: T1, C-C chemokine receptor type 2 (Homo sapiens, UniProt P41597); experiment: Displacement of [125I]MCP1 from CCR2 in human PBMCs
# Target sequence in this assay (P41597 whole entry): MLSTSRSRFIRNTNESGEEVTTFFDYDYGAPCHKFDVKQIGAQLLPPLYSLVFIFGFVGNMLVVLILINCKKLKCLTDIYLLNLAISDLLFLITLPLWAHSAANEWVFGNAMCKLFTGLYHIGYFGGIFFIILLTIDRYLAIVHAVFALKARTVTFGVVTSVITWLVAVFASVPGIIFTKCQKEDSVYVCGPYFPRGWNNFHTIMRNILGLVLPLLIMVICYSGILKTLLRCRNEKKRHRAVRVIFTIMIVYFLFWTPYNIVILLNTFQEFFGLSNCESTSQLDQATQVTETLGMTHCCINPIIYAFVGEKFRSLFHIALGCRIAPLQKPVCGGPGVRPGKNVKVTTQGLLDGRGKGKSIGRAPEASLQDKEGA
# [2] = target: T1, C-C chemokine receptor type 2; experiment: Antagonist activity at CCR2 in human monocytes assessed as inhibition of MCP1-induced calcium influx by FLIPR; type: functional, cell-based
# Target sequence in this assay (P41597 whole entry): as above
# [3] = target: T1, C-C chemokine receptor type 2; experiment: Displacement of [125I]MCP1 from CCR2 in human PBMCs at 1 uM
# Target sequence in this assay (P41597 whole entry, looked up): as the sequence (P41597 whole entry) above
# [4] = Antagonist activity at CCR2 in human PBMCs assessed as inhibition of MCP1-induced chemotaxis
pIC50 [1],pIC50 [2],Activity [3] [%],pIC50 [4],Compound
5.79,–,0,–,CSc1ccc(C(=O)NC2CCC(NC(=O)OCc3ccccc3)CC2NC(=O)CNC(=O)c2cccc(C(F)(F)F)c2)cc1 (racemic)
8.00,8.26,–,–,Cc1ccc(CNC2CC(N(C)C)CCC2NC(=O)CNC(=O)c2cccc(C(F)(F)F)c2)cc1 (racemic)
6.78,–,28.1,–,CSc1ccc(C(=O)NC2CCC(N)CC2NC(=O)CNC(=O)c2cc(C(F)(F)F)ccc2N)cc1 (racemic)
–,–,–,6.96,CSc1ccc(C(=O)NC2CCNCC2NC(=O)CNC(=O)c2cc(C(F)(F)F)ccc2N)cc1 (racemic)
7.90,8.10,–,–,COc1ccc(CNC2CC(N(C)C)CCC2NC(=O)CNC(=O)c2cccc(C(F)(F)F)c2)cc1 (racemic)
6.87,–,–,–,CSc1ccc(C(=O)NC2CCC(NC(C)C)CC2NC(=O)CNC(=O)c2cccc(C(F)(F)F)c2)cc1 (racemic)
7.78,7.72,–,–,CC(C)c1ccc(CNC2CC(N(C)C)CCC2NC(=O)CNC(=O)c2cccc(C(F)(F)F)c2)cc1 (racemic)
–,–,31.4,–,CSc1ccc(C(=O)NC2CC(NC(C)C)CCC2NC(=O)CNC(=O)c2cccc(C(F)(F)F)c2)cc1 (racemic)
8.42,8.70,–,–,CSc1ccc(C(=O)NC2CCC(NC(C)C)CC2NC(=O)CNC(=O)c2cc(C(F)(F)F)ccc2N)cc1 (racemic)
8.51,8.10,–,–,CN(C)C1CCC(NC(=O)CNC(=O)c2cccc(C(F)(F)F)c2)C(NCc2ccc3[nH]ccc3c2)C1 (racemic)

# The remaining lines, values behind:
Compound,pIC50 [1],pIC50 [2],Activity [3] [%],pIC50 [4]
CSc1ccc(C(=O)NC2CC(NC(=O)OCc3ccccc3)CCC2NC(=O)CNC(=O)c2cccc(C(F)(F)F)c2)cc1 (racemic; form 2),8.62,8.70,–,–
CSc1ccc(C(=O)NC2CCC(NC(=O)OCc3ccccc3)CC2NC(=O)CNC(=O)c2cc(C(F)(F)F)ccc2N)cc1 (racemic),–,–,3.1,–
CSc1ccc(C(=O)NC2CCC(N)CC2NC(=O)CNC(=O)c2cccc(C(F)(F)F)c2)cc1 (racemic),–,–,13,–
CSc1ccc(C(=O)NC2CC(N)CCC2NC(=O)CNC(=O)c2cccc(C(F)(F)F)c2)cc1 (racemic),6.64,–,–,–
CSc1ccc(C(=O)NC2CCC(NC(=O)OCc3ccccc3)CC2NC(=O)CNC(=O)c2cc(C(F)(F)F)ccc2NC(=O)OC(C)(C)C)cc1 (racemic),6.22,–,–,–
CN(C)C1CCC(NC(=O)CNC(=O)c2cccc(C(F)(F)F)c2)C(NCc2ccc(Cl)cc2)C1 (racemic),7.80,8.15,–,–
CSc1ccc(C(=O)NC2CC(NC(=O)OCc3ccccc3)CCC2NC(=O)CNC(=O)c2cccc(C(F)(F)F)c2)cc1 (racemic; form 1),–,–,14,–
CN(C)C1CCC(NC(=O)CNC(=O)c2cccc(C(F)(F)F)c2)C(NCc2cccc(C(F)(F)F)c2)C1 (racemic),7.49,7.57,–,–
CSc1ccc(CNC2CC(N(C)C)CCC2NC(=O)CNC(=O)c2cccc(C(F)(F)F)c2)cc1 (racemic),8.62,8.22,–,–
CC(=O)Nc1ccc(CNC2CC(N(C)C)CCC2NC(=O)CNC(=O)c2cccc(C(F)(F)F)c2)cc1 (racemic),8.11,–,–,–
CN(C)C1CCC(NC(=O)CNC(=O)c2cccc(C(F)(F)F)c2)C(NCc2ccc(Cl)c(Cl)c2)C1 (racemic),7.21,–,–,–
CSc1ccc(C(=O)NC2CCCCC2NC(=O)CNC(=O)c2cc(C(F)(F)F)ccc2N)cc1 (racemic),6.81,–,–,–
CSc1ccc(C(=O)NC2CC(N)CCC2NC(=O)CNC(=O)c2cc(C(F)(F)F)ccc2N)cc1 (racemic),8.32,8.22,–,–
CNC(=O)NC1CCC(NC(=O)c2ccc(SC)cc2)C(NC(=O)CNC(=O)c2cc(C(F)(F)F)ccc2N)C1 (racemic),6.95,–,–,–
